What was measured:
[1] = target: T1, AR (Homo sapiens, UniProt P10275); assay: AR transactivation (GRE-LUC) in HEK-293 or MDA-MB-231 cells; format: cell-based; set-up: expressed in transfected cells; settings: HEK-293 and MDA-MB-231 cells
T1 sequence (P10275 1-920): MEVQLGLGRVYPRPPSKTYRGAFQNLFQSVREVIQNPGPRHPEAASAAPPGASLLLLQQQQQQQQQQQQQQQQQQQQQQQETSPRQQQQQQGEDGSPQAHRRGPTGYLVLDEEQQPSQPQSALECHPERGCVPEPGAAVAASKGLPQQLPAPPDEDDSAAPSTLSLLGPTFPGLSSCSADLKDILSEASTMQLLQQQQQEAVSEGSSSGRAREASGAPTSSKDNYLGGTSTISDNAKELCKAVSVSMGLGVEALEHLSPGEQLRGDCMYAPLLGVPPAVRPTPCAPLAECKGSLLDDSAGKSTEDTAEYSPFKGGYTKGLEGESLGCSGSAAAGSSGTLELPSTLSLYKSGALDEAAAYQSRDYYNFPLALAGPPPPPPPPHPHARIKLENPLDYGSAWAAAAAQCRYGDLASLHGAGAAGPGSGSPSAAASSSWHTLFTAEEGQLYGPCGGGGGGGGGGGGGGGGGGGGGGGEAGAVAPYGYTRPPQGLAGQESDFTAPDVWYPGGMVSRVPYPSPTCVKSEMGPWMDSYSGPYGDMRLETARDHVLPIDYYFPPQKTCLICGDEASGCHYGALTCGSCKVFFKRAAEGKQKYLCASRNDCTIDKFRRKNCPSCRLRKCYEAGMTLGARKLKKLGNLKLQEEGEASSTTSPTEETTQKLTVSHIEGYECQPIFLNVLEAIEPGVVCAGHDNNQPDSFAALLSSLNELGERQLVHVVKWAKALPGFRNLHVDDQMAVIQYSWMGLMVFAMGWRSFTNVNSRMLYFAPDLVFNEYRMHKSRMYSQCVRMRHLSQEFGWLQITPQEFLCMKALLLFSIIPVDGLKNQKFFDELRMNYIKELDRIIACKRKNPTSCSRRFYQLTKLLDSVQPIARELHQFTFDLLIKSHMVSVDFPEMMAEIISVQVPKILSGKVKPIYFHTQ
Experimental: Though AR transactivation assay was performed in HEK-293 cells, the ability of ligands to function as agonists or antagonists depends on cellular microenvironment. […] The cells were treated 24 h after transfection and luciferase assay performed 48 h after transfection.

[2] = test system: MDA-MB-231 breast cancer cells stably transfected with AR; assay: Proliferation of MDA-MB-231 cells stably transfected with AR (Coulter counter); format: cell-based; settings: 6 days, cell count
Experimental: MDA-MB-231 cells stably transfected with AR using lentivirus were treated with the indicated ligands for 6 days and the number of cells counted using Coulter counter.

[3] = test system: MDA-MB-231-AR cells; assay: Morphology of MDA-MB-231-AR cells; format: cell-based; settings: 3 days
Experimental: MDA-MB-231 cells were stably transfected with AR using lentivirus. […] Live cells were visualized using a light-microscope and photographed. The cells were imaged at the same magnification and under the same microscopic conditions.
MDA-MB-231 cells were stably transfected with AR using lentivirus and were treated with vehicle or AR agonists at the indicated concentrations. At the end of 3 days of incubation, the cells were imaged under a microscope (40×).

[4] = target: T2, PR (Rattus norvegicus, UniProt Q63449); assay: PR transactivation in HEK-293 cells; format: cell-based
T2 construct: expressed in transfected cells
T2 sequence (Q63449 1-923): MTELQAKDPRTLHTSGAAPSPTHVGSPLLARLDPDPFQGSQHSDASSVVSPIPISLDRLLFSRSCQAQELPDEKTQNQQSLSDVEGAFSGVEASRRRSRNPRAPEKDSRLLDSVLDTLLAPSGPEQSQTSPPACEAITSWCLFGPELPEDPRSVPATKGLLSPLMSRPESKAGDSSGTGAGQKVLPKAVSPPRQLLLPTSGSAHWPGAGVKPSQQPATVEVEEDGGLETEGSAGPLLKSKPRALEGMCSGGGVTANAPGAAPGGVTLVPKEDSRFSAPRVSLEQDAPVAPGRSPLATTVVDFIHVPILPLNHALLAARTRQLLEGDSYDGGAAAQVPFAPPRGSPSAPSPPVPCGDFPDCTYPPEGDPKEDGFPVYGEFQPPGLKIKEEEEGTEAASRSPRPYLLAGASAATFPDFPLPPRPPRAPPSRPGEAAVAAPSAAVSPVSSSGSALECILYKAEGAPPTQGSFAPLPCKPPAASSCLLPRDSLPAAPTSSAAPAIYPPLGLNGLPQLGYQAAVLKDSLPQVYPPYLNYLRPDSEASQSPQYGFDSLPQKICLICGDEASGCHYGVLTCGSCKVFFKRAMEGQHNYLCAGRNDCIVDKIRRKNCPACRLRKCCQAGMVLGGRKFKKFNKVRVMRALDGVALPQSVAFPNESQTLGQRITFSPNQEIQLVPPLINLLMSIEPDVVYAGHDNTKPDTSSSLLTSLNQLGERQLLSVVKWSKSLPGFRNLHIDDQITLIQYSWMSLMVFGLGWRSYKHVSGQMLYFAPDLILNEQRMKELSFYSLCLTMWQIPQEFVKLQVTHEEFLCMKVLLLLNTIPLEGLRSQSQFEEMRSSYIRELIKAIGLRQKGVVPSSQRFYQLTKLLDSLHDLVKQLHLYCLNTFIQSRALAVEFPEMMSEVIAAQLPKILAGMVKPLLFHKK
Experimental: Rat GR, MR, PR, ER-α and ER-β were individually cloned into a pCR3.1 vector backbone. Sequencing was performed to verify the absence of any mutations. HEK-293 cells were plated at 90,000 cells per well of a 24 well plate in Dulbecco's Minimal Essential Media supplemented with 5% charcoal-stripped FBS. […] Luciferase assays were performed 48 h after transfection. Transcriptional activation values are represented as firefly luciferase normalized to renilla luciferase.

[5] = test system: MDA-MB-231-AR triple negative breast cancer cells; assay: MDA-MB-231-AR xenograft in nude mice; format: in vivo; settings: for body weight / tumor weights: all doses
Experimental: MDA-MB-231-AR triple negative breast cancer cells (2 million cells/mouse; MDA-MB-231 cells stably transfected with AR using lentivirus) were mixed with matrigel (1:1) and injected subcutaneously into the flanks of intact female nude mice (n=5/group). When the tumors reached 150-200 mm^3, the animals were separated into two groups, one receiving vehicle and the other receiving 30 mg/kg Formula VIII orally. Tumor volume was measured thrice weekly and % tumor growth inhibition (TGI) was calculated. At the end of 35 days of treatment, the animals were sacrificed, tumors excised, weighed, and collected for various analyses. Blood was collected and serum separated for drug concentration measurement.

Compound	AR transactivation [1]	proliferation [2]	cell morphology [3]	IC50 [4]	body weight [5]	tumor weights [5]	PR antagonist potency relative to Formula IX (more potent) [4]	PR antagonist potency relative to R-enantiomer of Formula IX (more potent) [4]	PR antagonist potency relative to RU486 (weaker) [4]	transactivation of PR, increase ([4]; 1 μM)	transactivation of PR, increase ([4]; 10 μM)	weaker than the endogenous agonist for PR ([4]; vs progesterone)	uterus weight ([5]; 30 mg/kg orally)	toxicity / body weight ([5]; 30 mg/kg orally, 35 days)
C[C@](O)(COc1ccc(C#N)cc1)C(=O)Nc1ccc(C#N)c(C(F)(F)F)c1 [Formula IX, (S)—N-(4-Cyano-3-(trifluoromethyl)phenyl)-3-(4-cyanophenoxy)-2-hydroxy-2-methylpropanamide]	agonists of AR	inhibited the proliferation	altered the morphology into a more anchored phenotype	0.163 µM	increase of body weight	reduced	–	–	–	–	–	–	–	–
C[C@](O)(COc1ccc(C#N)cc1)C(=O)Nc1ccc(C#N)c(Cl)c1 [Formula VIII, (S)—N-(3-chloro-4-cyanophenyl)-3-(4-cyanophenoxy)-2-hydroxy-2-methylpropanamide]	agonists of AR	inhibited the proliferation	altered the morphology into a more anchored phenotype	0.0171 µM	increase of body weight	reduced	10 times	100 times	about 1,000 fold	3 fold	8 fold	greater than 10,000 fold	increased	without any associated toxicity or changes in body weight

Source: US20220257552A1, “METHODS OF PRESCREENING AND TREATING BREAST CANCERS WITH SELECTIVE ANDROGEN RECEPTOR MODULATORS” (priority 2021, published 2022)
